US20230346831A1, “METHODS FOR TREATING […] USING LOW DOSE CARBON MONOXIDE” (priority 2020, published 2023)

Legend:
HO-1 = assay: Western blot analysis; type: cell-based, human; conditions: two breast cancer cell lines (MCF7, MDA-MB-231); 250 ppm CO
Experimental: (§1) 1.5 × 10^6 cells were seeded in 6-cm cell culture plates with DMEM containing 10% FBS, 0.2 mM L-glutamine and 1% penicillin/streptomycin. Additionally, MCF7/TGL/pQ was cultured in media containing 0.5 µgml^-1 puromycin and 25 mM HEPES. After 16 hours of incubation, cells were lysed with RIPA buffer (0.1% SDS, 1% TritonX-100, 0.5% sodium deoxycholate, 25 mM Tris pH 8.0, 150 mM NaCl, and 1 mM EDTA) supplemented with a protease inhibitor mixture and PhosSTOP (Roche, Basel, Switzerland). Proteins were quantified with Bradford assay (Bio-Rad, Hercules CA). Equal amounts of proteins were separated with SDS-PAGE and transferred to nitrocellulose membranes. […] Protein bands were visualized by enhanced chemical luminescence (Pierce, Dallas, TX).
(§2) To investigate how CO reduces heme levels, whether CO decreased the transportation of heme into the cytosol was examined. […] Likewise, changes in protein levels of Bach 1 (a physiological repressor of HO-1 and a pro-metastatic transcription factor, whose degradation is reported to be mediated by heme in Nrf2-mutated lung cancer) was not detected (FIG. 4E). […]

Bach 1 = assay: Western blot analysis; type: cell-based, human; conditions: two breast cancer cell lines (MCF7, MDA-MB-231); 250 ppm CO
Experimental: as §1, §2

8988T/TGL cells = assay: orthotopic (intrasplenic) model of liver metastasis of PDAC; type: in vivo; conditions: 8988T/TGL cells intrasplenic, NSG mice, 5 days a week
Experimental: NSG mice were generated by the Jackson Laboratory. All mice were housed in accordance with the institutional guidelines. […] Zhang, & Y. N. Du, Methods Mol Biol 1882, 309-320 (2019)). The spleen was removed after the injection. Starting one day after injection, mice were randomized into two groups. One group was kept in a regular mouse holding room (control), and the other group was put into a chamber delivering 250 ppm CO 3 hours daily. Mice were subjected to bioluminescent imaging using the In Vivo Imaging System Spectrum (PerkinElmer, Waltham, MA) at 0, 1, 3 days and then weekly after tumor cells were injected until the final time points, as described previously by Y. C. Du, D. S. Klimstra, & H. Varmus, PLoS One 4, e6932 (2009)). Luciferase signals were transformed to nature log scale before analysis. GEE method was used to test the overall difference of tumor growth over time. All analyses were performed in statistical software SAS Version 9.4 (SAS Institute, Cary, NC).
Mouse tissues were removed and fixed in 10% buffered formalin overnight at room temperature. […] Tumor number and tumor size were quantified by scanning the whole tissue slide of each mouse under microscope. The size of tumor area of each tumor was measured by the cellSens imaging software (Olympus, Tokyo, Japan). […]

CYP1B1 = assay: Western blot analysis; type: cell-based, human; conditions: 250 ppm CO
Experimental: 1.5 × 10^6 cells were seeded in 6-cm cell culture plates with DMEM containing 10% FBS, 0.2 mM L-glutamine and 1% penicillin/streptomycin. Additionally, MCF7/TGL/pQ was cultured in media containing 0.5 µgml^-1 puromycin and 25 mM HEPES. After 16 hours of incubation, cells were lysed with RIPA buffer (0.1% SDS, 1% TritonX-100, 0.5% sodium deoxycholate, 25 mM Tris pH 8.0, 150 mM NaCl, and 1 mM EDTA) supplemented with a protease inhibitor mixture and PhosSTOP (Roche, Basel, Switzerland). Proteins were quantified with Bradford assay (Bio-Rad, Hercules CA). Equal amounts of proteins were separated with SDS-PAGE and transferred to nitrocellulose membranes. To visualize equal protein loading, blots were stained with Ponceau S. Blots were incubated in 5% non-fat milk in TBST, probed with primary antibodies to CYP1B1 (1:1,000, Abcam, Cambridge, United Kingdom, Cat. No. 32649), HO-1 (1:1,000, Santa Cruz Biotechnology, Dallas, TX, Cat. No. 136960), BACH1 (1:1,000, ABclonal, Woburn, MA, Cat. No. A5393), E-cadherin (1:1,1000, BD Biosciences (Cat. No. 610181), San Jose, CA), α-tubulin (1:1,000, Sigma (Cat. No. T5168), St. Louis MO), and vimentin (1:1,000, Cell Signaling Tech (Cat. No. 5741), Danvers, MA), and then were incubated with horseradish peroxidase-conjugated secondary antibodies. Protein bands were visualized by enhanced chemical luminescence (Pierce, Dallas, TX). […]

[C-]#[O+] [CO, Carbon monoxide]
increase of HO-1 expression (HO-1): not detected | changes in protein levels of Bach 1 (Bach 1): not detected | metastatic tumor numbers in liver sections (histological analysis) (8988T/TGL cells; 250 ppm CO 3 hours daily, 19 days after the injection): significantly less | bioluminescence over the time course, control vs CO group (8988T/TGL cells; 250 ppm CO gas 3 hours daily, P < 0.0001, GEE method): Significant difference | CYP1B1 protein levels (CYP1B1; MCF7 and MDA-MB-231 cells): significantly reduced | CYP1B1 protein levels (CYP1B1; PDAC 8988T cells): reduced
